Test results as given in publication PMC2783186 (Journal of medicinal chemistry, 2009).

What was measured:
PLAP = PLAP (Homo sapiens, UniProt P05187); assay: PLAP luminescent assay; format: biochemical
PHOSPHO1 = target: T1, PHOSPHO1 (Homo sapiens, UniProt Q8TCT1); assay: PHOSPHO1 counterscreen; format: biochemical; conditions: read-out: Inhibition of PHOSPHO1
T1 sequence (Q8TCT1 1-267): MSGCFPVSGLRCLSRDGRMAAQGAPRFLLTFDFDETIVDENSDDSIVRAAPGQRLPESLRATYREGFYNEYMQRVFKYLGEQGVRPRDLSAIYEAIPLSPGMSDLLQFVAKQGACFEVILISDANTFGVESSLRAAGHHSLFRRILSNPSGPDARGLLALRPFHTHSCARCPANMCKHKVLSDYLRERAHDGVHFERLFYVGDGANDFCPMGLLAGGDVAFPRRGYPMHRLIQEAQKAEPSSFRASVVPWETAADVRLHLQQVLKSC

[1] = test system: Cytochrome P450 2C19 (CYP2C19); conditions: ref PubChem database; cited from earlier work
PAMPA permeability = format: in vitro ADME
TNAP [2] = target: T2, TNAP (Homo sapiens, UniProt P05186); assay: TNAP luminescent assay; format: biochemical; conditions: relative to lead compound 1
T2 sequence (P05186 18-501 limits assumed): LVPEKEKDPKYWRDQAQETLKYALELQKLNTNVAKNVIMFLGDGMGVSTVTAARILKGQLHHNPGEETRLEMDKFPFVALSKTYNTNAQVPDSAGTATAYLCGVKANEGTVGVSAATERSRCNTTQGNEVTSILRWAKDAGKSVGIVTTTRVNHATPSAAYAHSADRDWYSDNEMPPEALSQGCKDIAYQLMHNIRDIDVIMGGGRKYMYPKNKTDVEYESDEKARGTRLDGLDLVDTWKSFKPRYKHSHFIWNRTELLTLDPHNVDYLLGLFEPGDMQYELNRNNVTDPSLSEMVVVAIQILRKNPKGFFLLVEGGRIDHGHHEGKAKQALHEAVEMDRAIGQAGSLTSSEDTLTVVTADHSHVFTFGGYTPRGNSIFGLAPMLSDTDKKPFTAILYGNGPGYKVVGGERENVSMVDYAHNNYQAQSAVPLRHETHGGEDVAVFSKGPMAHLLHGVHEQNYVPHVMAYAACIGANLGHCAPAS

TNAP [3] = target: T2, TNAP; conditions: cited from earlier work

PLAP, sequence (P05187 23-506 limits assumed): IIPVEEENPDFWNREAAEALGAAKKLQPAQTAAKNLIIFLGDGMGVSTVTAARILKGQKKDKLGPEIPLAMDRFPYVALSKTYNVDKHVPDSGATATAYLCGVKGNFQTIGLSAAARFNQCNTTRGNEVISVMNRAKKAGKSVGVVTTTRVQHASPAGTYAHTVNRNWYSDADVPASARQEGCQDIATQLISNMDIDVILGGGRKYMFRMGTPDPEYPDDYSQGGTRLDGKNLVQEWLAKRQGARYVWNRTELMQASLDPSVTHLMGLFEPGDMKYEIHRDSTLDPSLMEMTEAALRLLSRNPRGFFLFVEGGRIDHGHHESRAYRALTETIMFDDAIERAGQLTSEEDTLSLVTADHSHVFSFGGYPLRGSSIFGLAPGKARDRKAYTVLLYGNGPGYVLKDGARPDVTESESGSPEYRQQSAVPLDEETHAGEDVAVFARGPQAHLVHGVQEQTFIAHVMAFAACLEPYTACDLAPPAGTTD

Row | SMILES | PAMPA (% FLUX) (PAMPA permeability) | TNAP inhibitory activity (in words) (TNAP [2]) | other results
1 | COc1ccc(Br)cc1S(=O)(=O)Nc1cnc2ccccc2c1 [Compound 18, 5-Bromo-2-methoxy-N-(quinolin-3-yl)benzenesulfonamide] | 54 % FLUX | – | –
2 | COc1ccc(OC)c(S(=O)(=O)Nc2ccc3ccccc3c2)c1 [Compound 12, 2,5-Dimethoxy-N-(naphthalen-2-yl)benzenesulfonamide] | – | loss of activity | –
3 | COc1ccc(OC)c(S(=O)(=O)Nc2ccc3ncccc3c2)c1 [Compound 13, 2,5-Dimethoxy-N-(quinolin-6-yl)benzenesulfonamide] | – | loss of activity | –
4 | NC(N)=NCCCC[C@H](N)C(=O)O [L-homoarginine] | – | – | Mode of inhibition versus phosphate-donor substrate (TNAP [3]): uncompetitive
5 | c1ccc([C@H]2CN3CCSC3=N2)cc1 [levamisole] | – | – | Mode of inhibition versus phosphate-donor substrate (TNAP [3]): uncompetitive
6 | COc1cccc(S(=O)(=O)Nc2cnc3ccccc3c2)c1 [Compound 15, 3-Methoxy-N-(quinolin-3-yl)benzenesulfonamide] | – | dramatic loss of activity | –
7 | COc1ccc(C)cc1S(=O)(=O)Nc1cnc2ccccc2c1 [Compound 19, 2-Methoxy-5-methyl-N-(quinolin-3-yl)benzenesulfonamide] | 7 % FLUX | – | –

Further lines, with some results ahead:

Row | PAMPA (% FLUX) (PAMPA permeability) | TNAP inhibitory activity (in words) (TNAP [2]) | SMILES | other results
8 | 58 % FLUX | – | COc1ccc(OC)c(S(=O)(=O)Nc2cnc3ccccc3c2)c1 [Compound 1, 2,5-Dimethoxy-N-(quinolin-3-yl)benzenesulfonamide] | IC50 (PLAP): > 100 µM; inhibition at 10 µM (PHOSPHO1): < 7.4%; Activity in Cytochrome P450 2C19 assay [1]: showed activity
9 | – | abolished the inhibitory activity | COc1ccc(OC)c(CNc2cnc3ccccc3c2)c1 [Compound 17] | –
10 | – | abolished the inhibitory activity | COc1ccc(OC)c(NS(=O)(=O)c2cnc3ccccc3c2)c1 [Compound 16, N-(2,5-Dimethoxyphenyl)quinoline-3-sulfonamide] | –
